From PMC3914206

Tests used:
Assay type in all cases: binding
Conditions in all cases: Compound Concentration 10 µM
panel of 442 kinases [1] = molecular target: T1, panel of 442 kinases (Homo sapiens, UniProt P10721, V559D/V654A)
T1 construct: purchased KINOMEscan
Description: (§1) We assessed the selectivity of members of this scaffold using the KINOMEscan methodology across a near comprehensive panel of 442 kinases [[18,27]].

panel of 442 kinases [2] = molecular target: T2, panel of 442 kinases (Homo sapiens, UniProt Q12852)
T2 construct: purchased KINOMEscan
T2 sequence (Q12852 1-859): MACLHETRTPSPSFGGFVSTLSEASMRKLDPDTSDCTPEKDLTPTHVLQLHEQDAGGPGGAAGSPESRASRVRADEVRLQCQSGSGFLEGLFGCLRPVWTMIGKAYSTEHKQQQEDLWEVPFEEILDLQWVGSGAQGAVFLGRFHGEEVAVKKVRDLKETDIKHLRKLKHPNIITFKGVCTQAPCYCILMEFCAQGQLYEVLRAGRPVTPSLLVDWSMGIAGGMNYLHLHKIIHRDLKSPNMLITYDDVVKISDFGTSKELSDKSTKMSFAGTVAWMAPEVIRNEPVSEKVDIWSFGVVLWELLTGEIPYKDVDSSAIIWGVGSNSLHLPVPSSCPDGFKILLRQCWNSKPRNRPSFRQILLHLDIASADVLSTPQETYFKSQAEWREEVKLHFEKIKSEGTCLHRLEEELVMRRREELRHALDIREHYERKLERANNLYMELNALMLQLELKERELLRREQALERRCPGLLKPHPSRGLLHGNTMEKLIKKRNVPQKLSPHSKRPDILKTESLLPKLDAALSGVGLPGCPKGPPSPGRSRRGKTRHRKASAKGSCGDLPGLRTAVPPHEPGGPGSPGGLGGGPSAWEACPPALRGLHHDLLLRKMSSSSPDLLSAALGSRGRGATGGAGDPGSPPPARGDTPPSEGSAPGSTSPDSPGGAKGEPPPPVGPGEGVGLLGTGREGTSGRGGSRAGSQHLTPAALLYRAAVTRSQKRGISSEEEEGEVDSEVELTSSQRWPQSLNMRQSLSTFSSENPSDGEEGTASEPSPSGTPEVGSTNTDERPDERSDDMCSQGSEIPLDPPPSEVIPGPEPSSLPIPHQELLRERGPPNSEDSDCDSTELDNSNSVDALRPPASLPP
Description: as §1

panel of 442 kinases [3] = molecular target: T3, panel of 442 kinases (Homo sapiens, UniProt Q16512)
T3 construct: purchased KINOMEscan
T3 sequence (Q16512 whole entry): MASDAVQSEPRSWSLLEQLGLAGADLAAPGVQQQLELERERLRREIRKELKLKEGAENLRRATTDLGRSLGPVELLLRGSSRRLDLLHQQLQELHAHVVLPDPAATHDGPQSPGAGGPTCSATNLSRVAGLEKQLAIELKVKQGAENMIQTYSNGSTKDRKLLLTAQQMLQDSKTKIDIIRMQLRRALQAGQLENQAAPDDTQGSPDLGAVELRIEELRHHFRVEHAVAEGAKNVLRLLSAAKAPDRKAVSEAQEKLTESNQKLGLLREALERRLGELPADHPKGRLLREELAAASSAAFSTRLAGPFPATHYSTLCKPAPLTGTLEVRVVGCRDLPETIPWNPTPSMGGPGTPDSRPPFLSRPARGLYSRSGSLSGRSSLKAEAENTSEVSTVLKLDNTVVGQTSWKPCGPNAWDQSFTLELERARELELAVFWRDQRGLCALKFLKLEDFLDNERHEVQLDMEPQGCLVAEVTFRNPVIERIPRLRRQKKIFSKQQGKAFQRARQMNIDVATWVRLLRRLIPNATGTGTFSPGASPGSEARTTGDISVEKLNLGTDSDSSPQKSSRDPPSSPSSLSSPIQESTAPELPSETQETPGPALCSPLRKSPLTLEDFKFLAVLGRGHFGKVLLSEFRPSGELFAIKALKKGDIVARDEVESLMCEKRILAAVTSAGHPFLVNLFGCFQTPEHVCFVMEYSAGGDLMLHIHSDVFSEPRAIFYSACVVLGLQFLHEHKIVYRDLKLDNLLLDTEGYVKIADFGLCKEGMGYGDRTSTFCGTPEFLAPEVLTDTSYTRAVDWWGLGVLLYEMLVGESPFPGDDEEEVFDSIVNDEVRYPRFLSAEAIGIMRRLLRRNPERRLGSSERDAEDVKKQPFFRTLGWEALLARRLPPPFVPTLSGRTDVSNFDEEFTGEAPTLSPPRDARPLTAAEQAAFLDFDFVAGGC
Description: as §1

T1 sequence (P10721 26-976 V559D/V654A): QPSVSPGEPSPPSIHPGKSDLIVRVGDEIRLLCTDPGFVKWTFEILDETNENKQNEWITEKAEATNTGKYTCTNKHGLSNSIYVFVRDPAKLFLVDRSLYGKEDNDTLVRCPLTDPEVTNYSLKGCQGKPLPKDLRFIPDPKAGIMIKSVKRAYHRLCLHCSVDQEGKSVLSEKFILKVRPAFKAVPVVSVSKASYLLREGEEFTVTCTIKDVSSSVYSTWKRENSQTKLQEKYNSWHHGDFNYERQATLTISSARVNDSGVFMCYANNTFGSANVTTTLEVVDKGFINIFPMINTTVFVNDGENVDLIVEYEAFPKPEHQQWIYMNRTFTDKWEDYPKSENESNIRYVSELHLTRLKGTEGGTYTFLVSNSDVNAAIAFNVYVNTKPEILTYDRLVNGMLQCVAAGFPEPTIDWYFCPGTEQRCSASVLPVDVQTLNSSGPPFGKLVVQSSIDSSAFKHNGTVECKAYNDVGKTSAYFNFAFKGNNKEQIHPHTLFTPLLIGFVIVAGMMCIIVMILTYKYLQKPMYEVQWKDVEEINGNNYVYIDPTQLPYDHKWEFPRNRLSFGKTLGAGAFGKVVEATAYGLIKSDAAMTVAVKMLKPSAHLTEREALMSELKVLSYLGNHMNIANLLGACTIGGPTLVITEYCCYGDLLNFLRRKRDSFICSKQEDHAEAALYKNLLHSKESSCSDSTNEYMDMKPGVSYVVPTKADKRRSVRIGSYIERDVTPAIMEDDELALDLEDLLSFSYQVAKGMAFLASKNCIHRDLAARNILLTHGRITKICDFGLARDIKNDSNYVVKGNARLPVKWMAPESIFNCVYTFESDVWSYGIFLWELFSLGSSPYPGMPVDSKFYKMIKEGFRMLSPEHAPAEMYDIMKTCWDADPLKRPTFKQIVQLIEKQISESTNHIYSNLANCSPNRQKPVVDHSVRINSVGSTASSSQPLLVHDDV

Row | SMILES | KINOMEscan: KIT(V559D,V654A) (panel of 442 kinases [1]) | KINOMEscan: DLK (panel of 442 kinases [2]) | KINOMEscan: PKN1 (panel of 442 kinases [3])
1 | COc1cc(C(=O)N2CCC(N3CCN(C)CC3)CC2)ccc1Nc1ncc2c(n1)N(C)c1ccccc1C(=O)N2C [15 (LRRK2-IN-1)] | 100 | 81 | 100
2 | COc1cc(C(=O)N2CCC(N3CCN(C)CC3)CC2)ccc1Nc1ncc2c(n1)N1CCc3cccc(c31)C(=O)N2C [Compound 24] |  | 78 | 
3 | COc1cc(C(=O)N2CCC(N3CCN(C)CC3)CC2)ccc1Nc1ncc2c(n1)N(C1CCCC1)c1ccccc1C(=O)N2C [Compound 25, 11-cyclopentyl-2-((2-methoxy-4-(4-(4-methylpiperazin-1-yl)piperidine-1-carbonyl)phenyl)amino)-5-methyl-5H-benzo[e]pyrimido[5,4-b][1,4]diazepin-6(11H)-one] | 100 | 62 | 100
4 | CCOc1cc(C(=O)N2CCC(N3CCN(C)CC3)CC2)ccc1Nc1ncc2c(n1)N(C1CCCC1)c1ccccc1C(=O)N2C [Compound 26] | 100 | 100 | 100
